Eight compounds from ChEMBL document CHEMBL1201862, “PubChem BioAssay data set” (2004) can be followed below.

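Growth conditions: 96-well plates. Treatment: test compound, 48 hours, 5 concentrations. Analysis: linear interpolation between bracketing concentrations; unreached endpoints set to highest concentration. At the GI50, growth is halved.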 Activity calls are given as the source filed them. No stated cut-off is given here; in the data, active = GI50 up to about 1.1 µM and inactive = higher. A value given as a limit tells only on which side of the number the result lay.

Among the test systems are NCI-H460; CAKI-1; ACHN; CCRF-CEM; SW-620; EKVX; COLO 205; UO-31; HT-29; HCC 2998; LOX IMVI; HL-60; SF-268; SK-OV-3; K562; KM12; A549; NCI-H522; NCI-H23; Malme-3M.
What all share (test): DTP human tumour cell line panel, 48 h

The GI50 is the concentration that inhibits growth by half.

On to `CCOC(=O)CCC(NC(=O)c1ccc(Nc2nc3ccccc3nc2C(=O)OCC)cc1)C(=O)OCC` (stereo not given), for which the GI50 was > 72.1 µM (inactive) with NCI-H460; 5.96 µM (inactive) in the experiment with CAKI-1; 3.58 µM (inactive) in the experiment with ACHN; > 100 µM (inactive) with CCRF-CEM; 5.77 µM (inactive) with SW-620; 7.38 µM (inactive) with EKVX. In addition, the GI50 in the experiment on COLO 205 was > 33.7 µM (inactive); in the experiment on UO-31, 4.28 µM (inactive); in the experiment on HT-29, 4.67 µM (inactive); in the experiment on HCC 2998, > 76 µM (inactive); in the experiment with LOX IMVI it was 5.58 µM (inactive); with HL-60, > 100 µM (inactive). For the same compound, the GI50 in the experiment on SF-268 is 7.71 µM (inactive); with SK-OV-3, 2.47 µM (inactive); in the experiment with K562 it was > 100 µM (inactive); in the experiment on KM12, 3.78 µM (inactive); in the experiment with A549 it was 3.78 µM (inactive); in the experiment on NCI-H522, 3.3 µM (inactive). The GI50 is 7.52 µM (inactive) in the experiment on NCI-H23 and 6.67 µM (inactive) in the experiment on Malme-3M.

Turning to `Cc1coc2c1C(OC(=O)C(C)C)C1(C)C(C)CCC(O)C1C2=O` (stereo not given), the GI50 in the experiment with NCI-H460 is > 100 µM (inactive); in the experiment with CAKI-1, > 100 µM (inactive); in the experiment on ACHN, > 100 µM (inactive); in the experiment on CCRF-CEM, 57.4 µM (inactive); in the experiment on SW-620 it was > 100 µM (inactive); in the experiment with EKVX it was > 100 µM (inactive). The GI50 is 97.7 µM (inactive) in the experiment with COLO 205; 50.2 µM (inactive) in the experiment on UO-31; > 100 µM (inactive) with HT-29; > 91.4 µM (inactive) with HCC 2998; > 100 µM (inactive) in the experiment with LOX IMVI; 46 µM (inactive) in the experiment with HL-60. Further, the GI50 in the experiment on SF-268 was > 100 µM (inactive); in the experiment on SK-OV-3, > 100 µM (inactive); in the experiment with K562, 54 µM (inactive); with KM12, > 100 µM (inactive); with A549, > 100 µM (inactive); in the experiment on NCI-H522, 67.1 µM (inactive). For the same compound, the GI50 in the experiment with NCI-H23 and in the experiment with Malme-3M was > 100 µM (inactive) each time.

Turning to `Fc1ccc(F)c(C2SCc3nc4ccccc4n32)c1` (stereo not given), the GI50 in the experiment with NCI-H460 was 83 µM (inactive); in the experiment with CAKI-1, 95.5 µM (inactive); in the experiment with ACHN, 98.4 µM (inactive); in the experiment on CCRF-CEM, 47.6 µM (inactive); with SW-620, > 100 µM (inactive); in the experiment on EKVX it was 57.9 µM (inactive). The GI50 was > 100 µM (inactive) with COLO 205; 41.3 µM (inactive) with UO-31; 86.3 µM (inactive) in the experiment with HT-29; > 100 µM (inactive) in the experiment with HCC 2998; 65.6 µM (inactive) in the experiment with LOX IMVI; 20.1 µM (inactive) in the experiment on HL-60. Besides, the GI50 is 66.4 µM (inactive) in the experiment with SF-268; > 100 µM (inactive) with SK-OV-3; 37.1 µM (inactive) in the experiment with K562; 72.6 µM (inactive) with KM12; 71.4 µM (inactive) with A549; 36.1 µM (inactive) in the experiment on NCI-H522. Further, the GI50 in the experiment with NCI-H23 is 46.2 µM (inactive); in the experiment on Malme-3M it was 57.1 µM (inactive).

With `O=C(/C=N/O)Nc1ccc(Cl)c(I)c1`, the GI50 in the experiment with NCI-H460 was 21.6 µM (inactive); with CAKI-1 it was 14.3 µM (inactive); in the experiment with ACHN, 16.7 µM (inactive); in the experiment on CCRF-CEM it was 26.7 µM (inactive); in the experiment on SW-620 it was 34.4 µM (inactive); with EKVX, 10.8 µM (inactive). Besides, the GI50 is 13.6 µM (inactive) in the experiment on COLO 205; 12.1 µM (inactive) in the experiment on UO-31; 33.3 µM (inactive) in the experiment on HT-29; 14.1 µM (inactive) with HCC 2998; 11.1 µM (inactive) in the experiment with LOX IMVI; 19.3 µM (inactive) with HL-60. Besides, the GI50 was 19.2 µM (inactive) in the experiment with SF-268; 17.8 µM (inactive) in the experiment with SK-OV-3; 24 µM (inactive) in the experiment with K562; 20.6 µM (inactive) in the experiment on KM12; 26.9 µM (inactive) in the experiment on A549; 14.7 µM (inactive) in the experiment on NCI-H522. Moreover, the GI50 in the experiment with NCI-H23 is 17.8 µM (inactive); in the experiment with Malme-3M it was 25.5 µM (inactive).

With `COC(=O)C1=CC(O)CCC1c1ccc(OC)cc1` (stereo not given), the GI50 in the experiment with NCI-H460, with CAKI-1, in the experiment with ACHN, in the experiment with CCRF-CEM, in the experiment with SW-620 and in the experiment on EKVX was > 100 µM (inactive) in each case. In addition, the GI50 in the experiment on COLO 205, in the experiment on UO-31, in the experiment with HT-29, in the experiment on HCC 2998, with LOX IMVI and in the experiment with HL-60 was > 100 µM (inactive) in each case. For the same compound, the GI50 with SF-268, in the experiment with SK-OV-3, in the experiment on K562, in the experiment on KM12, in the experiment with A549 and in the experiment with NCI-H522 was > 100 µM (inactive) throughout. Further, the GI50 with NCI-H23 and in the experiment on Malme-3M was > 100 µM (inactive) in each case.

With `CC(=O)C1=C(O)C(N)C2Cc3c(c(O)c4c(O)c(C)ccc4c3C)C(=O)C2(O)C1=O` (stereo not given), the GI50 was 1.3 µM (inactive) in the experiment with NCI-H460; 1.52 µM (inactive) in the experiment on CAKI-1; 1.35 µM (inactive) with ACHN; 3.24 µM (inactive) with CCRF-CEM; 2.79 µM (inactive) in the experiment on SW-620; 1.89 µM (inactive) in the experiment on EKVX. The GI50 with COLO 205 is 1.64 µM (inactive); in the experiment on UO-31, 3.18 µM (inactive); in the experiment on HT-29 it was 2.23 µM (inactive); in the experiment on HCC 2998 it was 3.28 µM (inactive); with LOX IMVI it was 0.973 µM (active); with HL-60 it was 2.23 µM (inactive). The GI50 in the experiment on SF-268 was 1.18 µM (inactive); with SK-OV-3, 3.53 µM (inactive); in the experiment with K562 it was 1.87 µM (inactive); in the experiment with KM12, 1.9 µM (inactive); in the experiment with A549, 1.61 µM (inactive); in the experiment with NCI-H522 it was 3.98 µM (inactive). Also, the GI50 is 1.75 µM (inactive) with NCI-H23 and 1.29 µM (inactive) in the experiment with Malme-3M.

Consider `COc1ccc2c(c1)/C(=C(\C(Cl)=C(Cl)Cl)[N+](=O)[O-])N2`, for which the GI50 with NCI-H460 was > 100 µM (inactive); in the experiment with CAKI-1, 90.6 µM (inactive); with ACHN, > 100 µM (inactive); in the experiment with CCRF-CEM, 31.1 µM (inactive); in the experiment with SW-620, 73.8 µM (inactive); in the experiment on EKVX it was 26.7 µM (inactive). Moreover, the GI50 in the experiment on COLO 205 is > 100 µM (inactive); in the experiment on UO-31 it was > 100 µM (inactive); in the experiment on HT-29, > 100 µM (inactive); in the experiment on HCC 2998, > 100 µM (inactive); in the experiment with LOX IMVI, 76.4 µM (inactive); with HL-60, > 100 µM (inactive). For the same compound, the GI50 is 70.3 µM (inactive) in the experiment with SF-268; > 100 µM (inactive) in the experiment on SK-OV-3; 39 µM (inactive) with K562; > 100 µM (inactive) with KM12; > 100 µM (inactive) with A549; 25.3 µM (inactive) in the experiment on NCI-H522. The results for the GI50 in the experiment with NCI-H23 and with Malme-3M were 87.7 µM (inactive) and 88.9 µM (inactive), respectively.

Consider `O=C([O-])C(O)C(O)C(O)C(O)C(=O)O.[K+]` (stereo not given), for which the GI50 with NCI-H460, in the experiment on CAKI-1, with ACHN, with CCRF-CEM, with SW-620 and in the experiment on EKVX was > 100 µM (inactive) each time. Further, the GI50 with COLO 205 was > 100 µM (inactive); in the experiment on UO-31, > 100 µM (inactive); in the experiment on HT-29, > 100 µM (inactive); in the experiment on HCC 2998, > 100 µM (inactive); in the experiment with LOX IMVI, > 100 µM (inactive); in the experiment on HL-60, 76.2 µM (inactive). The GI50 in the experiment on SF-268, in the experiment with SK-OV-3, in the experiment on K562, in the experiment with KM12, with A549 and with NCI-H522 was > 100 µM (inactive) in each case. The GI50 with NCI-H23 and with Malme-3M was > 100 µM (inactive) in each case.
